# Source: patent publication US20240043404A1 (AbbVie Inc., priority 2009, published 2024)
# Test system: RS4;11 cells
# Assay: RS4;11 cell viability assay (CellTiter Glo);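 further: acute lymphoblastic leukemia line RS4,11, EC50 derived from percentage of viable cells after treatment relative to untreated controls, cell killing taken as a measure of Bcl-2 inhibition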
# Type: cell-based, human
# Conditions: Homo sapiens, RS4-11, 48 h, 50,000 cells per well, 10% human serum, 48 hours; read-out: RS4; 11 EC50 Values
# Procedure: The acute lymphoblastic leukemia (ALL) cell line RS4;11 was used as the primary human cell line to assess the cellular activity of Bcl-2 selective agents in vitro and their efficacy in vivo.
# Cell cytotoxicity EC50 values were assessed using CellTiter Glo (Promega) according to the manufacturer's recommendations. The EC50 values were determined as a percentage of viable cells following treatment compared to the untreated control cells.
row,EC50,Compound
1,0.553 nM,"CN(C)CC(=O)N1CCO[C@H](CNc2ccc(S(=O)(=O)NC(=O)c3ccc(N4CCN(CC5=C(c6ccc(Cl)cc6)CC(C)(C)CC5)CC4)cc3Oc3cnc4[nH]ccc4c3)cc2[N+](=O)[O-])C1 [Example 258, 4-(4-{[2-(4-chlorophenyl)-4,4-dimethylcyclohex-1-en-1-yl]methyl}piperazin-1-yl)-N-{[4-({[(2R)-4-(N,N-dimethylglycyl)morpholin-2-yl]methyl}amino)-3-nitrophenyl]sulfonyl}-2-(1H-pyrrolo[2,3-b]pyridin-5-yloxy)benzamide]"
2,0.388 nM,"CN(C)CC(=O)N1CCO[C@@H](CNc2ccc(S(=O)(=O)NC(=O)c3ccc(N4CCN(CC5=C(c6ccc(Cl)cc6)CC(C)(C)CC5)CC4)cc3Oc3cnc4[nH]ccc4c3)cc2[N+](=O)[O-])C1 [Example 259, 4-(4-{[2-(4-chlorophenyl)-4,4-dimethylcyclohex-1-en-1-yl]methyl}piperazin-1-yl)-N-{[4-({[(2S)-4-(N,N-dimethylglycyl)morpholin-2-yl]methyl}amino)-3-nitrophenyl]sulfonyl}-2-(1H-pyrrolo[2,3-b]pyridin-5-yloxy)benzamide]"
3,5.43 nM,"CN(C)CC(=O)N1CCC(COc2ncc(S(=O)(=O)NC(=O)c3ccc(N4CCN(CC5=C(c6ccc(Cl)cc6)CC(C)(C)CC5)CC4)cc3Oc3cnc4[nH]ccc4c3)cc2Cl)CC1 [Example 260, N-[(5-chloro-6-{[1-(N,N-dimethylglycyl)piperidin-4-yl]methoxy}pyridin-3-yl)sulfonyl]-4-(4-{[2-(4-chlorophenyl)-4,4-dimethylcyclohex-1-en-1-yl]methyl}piperazin-1-yl)-2-(1H-pyrrolo[2,3-b]pyridin-5-yloxy)benzamide]"
4,184 nM,"CC1(C)CCC(CN2CCN(c3ccc(C(=O)NS(=O)(=O)c4cnc(O[C@@H]5CCN(CC(F)F)C5)c(Cl)c4)c(Oc4cnc5[nH]ccc5c4)c3)CC2)=C(c2ccc(Cl)cc2)C1 [Example 261, N-[(5-chloro-6-{[(3R)-1-(2,2-difluoroethyl)pyrrolidin-3-yl]oxy}pyridin-3-yl)sulfonyl]-4-(4-{[2-(4-chlorophenyl)-4,4-dimethylcyclohex-1-en-1-yl]methyl}piperazin-1-yl)-2-(1H-pyrrolo[2,3-b]pyridin-5-yloxy)benzamide]"
5,16.3 nM,"CC1(C)CCC(CN2CCN(c3ccc(C(=O)NS(=O)(=O)c4ccc(N[C@@H]5CCN(CC#N)C5)c([N+](=O)[O-])c4)c(Oc4cnc5[nH]ccc5c4)c3)CC2)=C(c2ccc(Cl)cc2)C1 [Example 262, 4-(4-{[2-(4-chlorophenyl)-4,4-dimethylcyclohex-1-en-1-yl]methyl}piperazin-1-yl)-N-[(4-{[(3R)-1-(cyanomethyl)pyrrolidin-3-yl]amino}-3-nitrophenyl)sulfonyl]-2-(1H-pyrrolo[2,3-b]pyridin-5-yloxy)benzamide]"
6,> 1000 nM,"COC1(Cc2ccccc2-c2ccc(Cl)cc2)CCN(c2ccc(C(=O)NS(=O)(=O)c3cnc(OCC4(F)CCOCC4)c(Cl)c3)c(Oc3cnc4[nH]ccc4c3)c2)CC1 [Example 263, 4-{4-[(4′-chlorobiphenyl-2-yl)methyl]-4-methoxypiperidin-1-yl}-N-({5-chloro-6-[(4-fluorotetrahydro-2H-pyran-4-yl)methoxy]pyridin-3-yl}sulfonyl)-2-(1H-pyrrolo[2,3-b]pyridin-5-yloxy)benzamide]"
7,689 nM,"COC1(Cc2ccccc2-c2ccc(Cl)cc2)CCN(c2ccc(C(=O)NS(=O)(=O)c3ccc(NCC4CCOCC4)c([N+](=O)[O-])c3)c(Oc3cnc4[nH]ccc4c3)c2)CC1 [Example 264, 4-{4-[(4′-chlorobiphenyl-2-yl)methyl]-4-methoxypiperidin-1-yl}-N-({3-nitro-4-[(tetrahydro-2H-pyran-4-ylmethyl)amino]phenyl}sulfonyl)-2-(1H-pyrrolo[2,3-b]pyridin-5-yloxy)benzamide]"
8,7.17 nM,"O=C(NS(=O)(=O)c1ccc(NCC2CCOCC2)c([N+](=O)[O-])c1)c1ccc(N2CCN(CC3=C(c4ccc(Cl)cc4)CCC4(CCN(C(CF)CF)CC4)C3)CC2)cc1Oc1cnc2[nH]ccc2c1 [Example 265, 4-(4-{[9-(4-chlorophenyl)-3-(1,3-difluoropropan-2-yl)-3-azaspiro[5.5]undec-8-en-8-yl]methyl}piperazin-1-yl)-N-({3-nitro-4-[(tetrahydro-2H-pyran-4-ylmethyl)amino]phenyl}sulfonyl)-2-(1H-pyrrolo[2,3-b]pyridin-5-yloxy)benzamide]"
9,7.29 nM,"CC(C)N1CCC2(CCC(c3ccc(Cl)cc3)=C(CN3CCN(c4ccc(C(=O)NS(=O)(=O)c5ccc(NCC6CCOCC6)c([N+](=O)[O-])c5)c(Oc5cnc6[nH]ccc6c5)c4)CC3)C2)CC1 [Example 266, 4-(4-{[9-(4-chlorophenyl)-3-isopropyl-3-azaspiro[5.5]undec-8-en-8-yl]methyl}piperazin-1-yl)-N-({3-nitro-4-[(tetrahydro-2H-pyran-4-ylmethyl)amino]phenyl}sulfonyl)-2-(1H-pyrrolo[2,3-b]pyridin-5-yloxy)benzamide]"
10,69.4 nM,"O=C(NS(=O)(=O)c1cnc(OCC2CCOCC2)c(Cl)c1)c1ccc(N2CCN(CC3=C(c4ccc(Cl)cc4)CCC4(CCN(C(CF)CF)CC4)C3)CC2)cc1Oc1cnc2[nH]ccc2c1 [Example 267, 4-(4-{[9-(4-chlorophenyl)-3-(1,3-difluoropropan-2-yl)-3-azaspiro[5.5]undec-8-en-8-yl]methyl}piperazin-1-yl)-N-{[5-chloro-6-(tetrahydro-2H-pyran-4-ylmethoxy)pyridin-3-yl]sulfonyl}-2-(1H-pyrrolo[2,3-b]pyridin-5-yloxy)benzamide]"
11,48.8 nM,"CC(C)N1CCC2(CCC(c3ccc(Cl)cc3)=C(CN3CCN(c4ccc(C(=O)NS(=O)(=O)c5cnc(OCC6CCOCC6)c(Cl)c5)c(Oc5cnc6[nH]ccc6c5)c4)CC3)C2)CC1 [Example 268, 4-(4-{[9-(4-chlorophenyl)-3-isopropyl-3-azaspiro[5.5]undec-8-en-8-yl]methyl}piperazin-1-yl)-N-{[5-chloro-6-(tetrahydro-2H-pyran-4-ylmethoxy)pyridin-3-yl]sulfonyl}-2-(1H-pyrrolo[2,3-b]pyridin-5-yloxy)benzamide]"
12,7.23 nM,"CN1CCC(F)(COc2ncc(S(=O)(=O)NC(=O)c3ccc(N4CCN(CC5=C(c6ccc(Cl)cc6)CC(C)(C)CC5)CC4)cc3Oc3cnc4[nH]ccc4c3)cc2Cl)CC1 [Example 269, N-({5-chloro-6-[(4-fluoro-1-methylpiperidin-4-yl)methoxy]pyridin-3-yl}sulfonyl)-4-(4-{[2-(4-chlorophenyl)-4,4-dimethylcyclohex-1-en-1-yl]methyl}piperazin-1-yl)-2-(1H-pyrrolo[2,3-b]pyridin-5-yloxy)benzamide]"
13,2.52 nM,"CN(C)CC(=O)N1CCC(F)(COc2ncc(S(=O)(=O)NC(=O)c3ccc(N4CCN(CC5=C(c6ccc(Cl)cc6)CC(C)(C)CC5)CC4)cc3Oc3cnc4[nH]ccc4c3)cc2Cl)CC1 [Example 270, N-[(5-chloro-6-{[1-(N,N-dimethylglycyl)-4-fluoropiperidin-4-yl]methoxy}pyridin-3-yl)sulfonyl]-4-(4-{[2-(4-chlorophenyl)-4,4-dimethylcyclohex-1-en-1-yl]methyl}piperazin-1-yl)-2-(1H-pyrrolo[2,3-b]pyridin-5-yloxy)benzamide]"
14,437 nM,"O=C(NS(=O)(=O)c1ccc(NCC2CCOCC2)c([N+](=O)[O-])c1)c1ccc(N2CCC(F)(Cc3ccccc3-c3ccc(Cl)cc3)CC2)cc1Oc1cnc2[nH]ccc2c1 [Example 271, 4-{4-[(4′-chlorobiphenyl-2-yl)methyl]-4-fluoropiperidin-1-yl}-N-({3-nitro-4-[(tetrahydro-2H-pyran-4-ylmethyl)amino]phenyl}sulfonyl)-2-(1H-pyrrolo[2,3-b]pyridin-5-yloxy)benzamide]"
15,840 nM,"O=C(NS(=O)(=O)c1cnc(OCC2(F)CCOCC2)c(Cl)c1)c1ccc(N2CCC(F)(Cc3ccccc3-c3ccc(Cl)cc3)CC2)cc1Oc1cnc2[nH]ccc2c1 [Example 272, 4-{4-[(4′-chlorobiphenyl-2-yl)methyl]-4-fluoropiperidin-1-yl}-N-({5-chloro-6-[(4-fluorotetrahydro-2H-pyran-4-yl)methoxy]pyridin-3-yl}sulfonyl)-2-(1H-pyrrolo[2,3-b]pyridin-5-yloxy)benzamide]"
16,209 nM,"CC(C)N1CCC2(CCC(c3ccc(Cl)cc3)=C(CN3CCN(c4ccc(C(=O)NS(=O)(=O)c5ccc(NCC6CCOCC6)c(C(F)(F)F)c5)c(Oc5cnc6[nH]ccc6c5)c4)CC3)C2)CC1 [Example 273, 4-(4-{[9-(4-chlorophenyl)-3-isopropyl-3-azaspiro[5.5]undec-8-en-8-yl]methyl}piperazin-1-yl)-2-(1H-pyrrolo[2,3-b]pyridin-5-yloxy)-N-({4-[(tetrahydro-2H-pyran-4-ylmethyl)amino]-3-(trifluoromethyl)phenyl}sulfonyl)benzamide]"
17,214 nM,"CC1(C)CCC(CN2CCN(c3ccc(C(=O)NS(=O)(=O)c4cnc(O[C@@H]5CCN(C(CF)CF)C5)c(Cl)c4)c(Oc4cnc5[nH]ccc5c4)c3)CC2)=C(c2ccc(Cl)cc2)C1 [Example 274, N-[(5-chloro-6-{[(3R)-1-(1,3-difluoropropan-2-yl)pyrrolidin-3-yl]oxy}pyridin-3-yl)sulfonyl]-4-(4-{[2-(4-chlorophenyl)-4,4-dimethylcyclohex-1-en-1-yl]methyl}piperazin-1-yl)-2-(1H-pyrrolo[2,3-b]pyridin-5-yloxy)benzamide]"
18,143 nM,"CC1(C)CCC(CN2CCN(c3ccc(C(=O)NS(=O)(=O)c4ccc(OCCOC5CCOC5)c([N+](=O)[O-])c4)c(Oc4cnc5[nH]ccc5c4)c3)CC2)=C(c2ccc(Cl)cc2)C1 (stereo not shown) [Example 275, 4-(4-{[2-(4-chlorophenyl)-4,4-dimethylcyclohex-1-en-1-yl]methyl}piperazin-1-yl)-N-({3-nitro-4-[2-(tetrahydrofuran-3-yloxy)ethoxy]phenyl}sulfonyl)-2-(1H-pyrrolo[2,3-b]pyridin-5-yloxy)benzamide]"
19,3.5 nM,"CC1(C)CCC(CN2CCN(c3ccc(C(=O)NS(=O)(=O)c4ccc(NC[C@H]5CC[C@H](C#N)CC5)c([N+](=O)[O-])c4)c(Oc4cnc5[nH]ccc5c4)c3)CC2)=C(c2ccc(Cl)cc2)C1 [Example 276, 4-(4-{[2-(4-chlorophenyl)-4,4-dimethylcyclohex-1-en-1-yl]methyl}piperazin-1-yl)-N-[(4-{[(trans-4-cyanocyclohexyl)methyl]amino}-3-nitrophenyl)sulfonyl]-2-(1H-pyrrolo[2,3-b]pyridin-5-yloxy)benzamide]"
